Legend:
[1] = biological target: T1, Epidermal growth factor receptor (Homo sapiens, UniProt P00533); experiment: Inhibition of wild type human N-terminal GST tagged EGFR (669 to 1210 residues) expressed in Sf21 insect cells incubated for 30 mins in presence of ATP by HTRF analysis
[2] = biological target: T2, Receptor tyrosine-protein kinase erbB-2 (Homo sapiens, UniProt P04626); experiment: Inhibition of wild type human GST-tagged HER2 (676 to end residues) expressed in baculovirus infected Sf9 cells incubated for 30 mins in presence of ATP by HTRF analysis
T2 sequence (P04626 whole entry): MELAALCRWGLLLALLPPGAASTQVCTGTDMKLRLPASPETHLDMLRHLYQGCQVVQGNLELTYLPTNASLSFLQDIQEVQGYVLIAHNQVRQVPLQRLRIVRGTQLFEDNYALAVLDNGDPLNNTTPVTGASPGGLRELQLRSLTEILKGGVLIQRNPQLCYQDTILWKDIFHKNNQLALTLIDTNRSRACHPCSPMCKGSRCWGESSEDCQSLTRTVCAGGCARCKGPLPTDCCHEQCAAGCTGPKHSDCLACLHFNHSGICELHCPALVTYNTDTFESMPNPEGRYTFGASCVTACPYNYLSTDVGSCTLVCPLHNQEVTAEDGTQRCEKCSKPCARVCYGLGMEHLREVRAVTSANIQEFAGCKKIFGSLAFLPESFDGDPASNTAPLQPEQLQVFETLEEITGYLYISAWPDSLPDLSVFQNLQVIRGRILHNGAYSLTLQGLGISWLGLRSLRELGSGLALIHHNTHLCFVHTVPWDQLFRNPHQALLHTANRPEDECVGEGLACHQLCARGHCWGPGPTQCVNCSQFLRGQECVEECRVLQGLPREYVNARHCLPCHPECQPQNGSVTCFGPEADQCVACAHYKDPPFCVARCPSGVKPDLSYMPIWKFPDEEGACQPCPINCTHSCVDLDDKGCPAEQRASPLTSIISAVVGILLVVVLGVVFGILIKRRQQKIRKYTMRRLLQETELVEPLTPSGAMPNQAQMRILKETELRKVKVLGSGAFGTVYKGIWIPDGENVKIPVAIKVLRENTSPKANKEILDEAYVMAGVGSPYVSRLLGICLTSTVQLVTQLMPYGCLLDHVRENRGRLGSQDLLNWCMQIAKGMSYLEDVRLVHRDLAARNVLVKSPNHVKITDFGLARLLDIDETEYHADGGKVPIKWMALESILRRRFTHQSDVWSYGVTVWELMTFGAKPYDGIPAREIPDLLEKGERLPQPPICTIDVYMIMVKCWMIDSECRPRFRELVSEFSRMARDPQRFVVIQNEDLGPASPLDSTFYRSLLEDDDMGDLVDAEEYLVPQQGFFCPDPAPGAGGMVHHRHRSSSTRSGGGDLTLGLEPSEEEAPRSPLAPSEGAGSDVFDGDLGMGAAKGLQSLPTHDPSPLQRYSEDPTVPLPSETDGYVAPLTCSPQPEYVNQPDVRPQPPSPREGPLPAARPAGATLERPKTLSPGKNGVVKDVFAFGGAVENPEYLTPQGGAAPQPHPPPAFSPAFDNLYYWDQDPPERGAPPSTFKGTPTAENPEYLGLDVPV

[3] = test system: NCI-N87; experiment: Antiproliferative activity against human NCI-N87 cells assessed as inhibition of cell growth incubated for 72 hrs by Celltiter-Glo assay; assay type: functional, cell-based; conditions: NCI-N87, 72 h
[4] = test system: BT-474; experiment: Antiproliferative activity against human BT-474 cells assessed as inhibition of cell growth incubated for 72 hrs by Celltiter-Glo assay; assay type: functional, cell-based; conditions: BT-474, 72 h
[5] = test system: MDA-MB-468; experiment: Antiproliferative activity against human MDA-MB-468 cells overexpressing wild type EGFR assessed as cell growth inhibition incubated for 72 hrs by Celltiter-Glo assay; assay type: functional, cell-based; conditions: MDA-MB-468, 72 h
[6] = test system: NCI-N87; experiment: Antitumor activity against human NCI-N87 cells xenografted in BALB/c nude mouse assessed as tumor growth inhibition at 20 mg/kg/day, po administered once daily for 21 days relative to control; assay type: functional; conditions: NCI-N87, 504 h, time 21 day, read-out: TGI
[7] = test system: COLO-678; experiment: Antiproliferative activity against human COLO-678 cells assessed as cell growth inhibition incubated for 72 hrs by Celltiter-Glo assay; assay type: functional, cell-based; conditions: COLO-678, 72 h
[8] = test system: SK-BR-3; experiment: Antiproliferative activity against human SK-BR-3 cells overexpressing wild type HER2 assessed as cell growth inhibition incubated for 72 hrs by Celltiter-Glo assay; assay type: functional, cell-based; conditions: SK-BR-3, 72 h
[9] = test system: BT-474; experiment: Antitumor activity against human BT-474 cells xenografted in BALB/c nude mouse assessed as tumor growth inhibition at 20 mg/kg/day, po administered once daily for 21 days relative to control; assay type: functional; conditions: BT-474, 504 h, time 21 day, read-out: TGI
[10] = test system: NUGC-4; experiment: Antiproliferative activity against human NUGC-4 cells assessed as cell growth inhibition incubated for 72 hrs by Celltiter-Glo assay; assay type: functional, cell-based; conditions: NUGC-4, 72 h
[11] = test system: MFE-280; experiment: Antiproliferative activity against human MFE-280 cells assessed as cell growth inhibition incubated for 72 hrs by Celltiter-Glo assay; assay type: functional, cell-based; conditions: MFE-280, 72 h
[12] = test system: BaF3; experiment: Antitumor activity against mouse BaF3 cells harbouring HER2 A775_G776insYVMA mutant xenografted in BALB/c nude mouse assessed as tumor growth inhibition at 20 mg/kg, po qd measured for 13 days relative to control; assay type: functional; conditions: BaF3, 312 h, time 13 day, read-out: TGI
[13] = test system: ES-2; experiment: Antiproliferative activity against human ES2 cells assessed as cell growth inhibition incubated for 72 hrs by Celltiter-Glo assay; assay type: functional, cell-based; conditions: ES-2, 72 h
[14] = Antiproliferative activity against human KM12-Luc cells assessed as cell growth inhibition incubated for 72 hrs by Celltiter-Glo assay; assay type: functional, cell-based
[15] = test system: NCI-H441; experiment: Antiproliferative activity against human NCI-H441 cells assessed as cell growth inhibition incubated for 72 hrs by Celltiter-Glo assay; assay type: functional, cell-based; conditions: NCI-H441, 72 h
[16] = biological target: Receptor tyrosine-protein kinase erbB-2 (Homo sapiens, UniProt P04626, D769Y); experiment: Inhibition of HER2 D769Y mutant (unknown origin) incubated for 120 mins in presence of 33P-ATP by P81 ion exchange cellulose chromatography
[17] = biological target: Receptor tyrosine-protein kinase erbB-2 (Homo sapiens, UniProt P04626, R896C); experiment: Inhibition of HER2 R896C mutant (unknown origin) incubated for 120 mins in presence of 33P-ATP by P81 ion exchange cellulose chromatography
Chain of Receptor tyrosine-protein kinase erbB-2 (Homo sapiens, UniProt P04626, R896C) (P04626 23-1255 R896C limits assumed): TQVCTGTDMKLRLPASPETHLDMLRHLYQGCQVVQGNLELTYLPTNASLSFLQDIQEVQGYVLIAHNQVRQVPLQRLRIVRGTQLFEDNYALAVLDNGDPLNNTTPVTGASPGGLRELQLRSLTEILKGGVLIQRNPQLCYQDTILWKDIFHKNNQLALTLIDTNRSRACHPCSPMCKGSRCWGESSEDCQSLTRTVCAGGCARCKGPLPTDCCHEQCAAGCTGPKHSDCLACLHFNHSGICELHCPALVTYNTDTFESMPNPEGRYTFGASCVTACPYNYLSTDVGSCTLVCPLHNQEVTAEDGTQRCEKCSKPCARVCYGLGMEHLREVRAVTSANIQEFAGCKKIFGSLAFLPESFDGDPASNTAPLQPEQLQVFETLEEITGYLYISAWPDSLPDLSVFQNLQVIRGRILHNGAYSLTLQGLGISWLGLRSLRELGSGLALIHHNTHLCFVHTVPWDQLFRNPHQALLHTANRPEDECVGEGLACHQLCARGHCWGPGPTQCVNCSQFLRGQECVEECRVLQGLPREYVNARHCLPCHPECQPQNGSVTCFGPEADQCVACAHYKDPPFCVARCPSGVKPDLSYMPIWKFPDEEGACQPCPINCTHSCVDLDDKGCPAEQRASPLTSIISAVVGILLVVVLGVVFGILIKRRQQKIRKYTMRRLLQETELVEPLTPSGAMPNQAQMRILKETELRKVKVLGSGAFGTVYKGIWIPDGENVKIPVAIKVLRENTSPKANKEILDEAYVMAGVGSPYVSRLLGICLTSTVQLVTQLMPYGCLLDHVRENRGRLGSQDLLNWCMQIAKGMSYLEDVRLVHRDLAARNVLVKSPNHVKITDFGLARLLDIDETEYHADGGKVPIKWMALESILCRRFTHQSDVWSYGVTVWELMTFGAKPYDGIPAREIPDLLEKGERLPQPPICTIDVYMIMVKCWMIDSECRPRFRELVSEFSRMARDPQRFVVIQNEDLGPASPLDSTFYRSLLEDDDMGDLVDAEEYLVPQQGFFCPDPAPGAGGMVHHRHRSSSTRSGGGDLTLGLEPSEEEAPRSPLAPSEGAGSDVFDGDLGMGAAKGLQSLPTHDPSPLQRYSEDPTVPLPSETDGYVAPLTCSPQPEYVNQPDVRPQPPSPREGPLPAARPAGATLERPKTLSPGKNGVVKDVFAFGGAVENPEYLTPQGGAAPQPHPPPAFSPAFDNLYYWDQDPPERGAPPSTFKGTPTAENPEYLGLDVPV

[18] = biological target: Receptor tyrosine-protein kinase erbB-2 (Homo sapiens, UniProt P04626, V777L); experiment: Inhibition of HER2 V777L mutant (unknown origin) incubated for 120 mins in presence of 33P-ATP by P81 ion exchange cellulose chromatography
[19] = test system: BaF3; experiment: Antiproliferative activity against mouse BaF3 cells harbouring HER2 […] mutant assessed as inhibition of cell growth incubated for 72 hrs by Celltiter-Glo assay; assay type: functional, cell-based; conditions: BaF3, 72 h
[20] = biological target: T2, Receptor tyrosine-protein kinase erbB-2; experiment: Inhibition of HER2 (unknown origin)
[21] = biological target: Receptor tyrosine-protein kinase erbB-2 (Homo sapiens, UniProt P04626, D769H); experiment: Inhibition of HER2 D769H mutant (unknown origin) incubated for 120 mins in presence of 33P-ATP by P81 ion exchange cellulose chromatography
Chain of Receptor tyrosine-protein kinase erbB-2 (Homo sapiens, UniProt P04626, D769H) (P04626 23-1255 D769H limits assumed): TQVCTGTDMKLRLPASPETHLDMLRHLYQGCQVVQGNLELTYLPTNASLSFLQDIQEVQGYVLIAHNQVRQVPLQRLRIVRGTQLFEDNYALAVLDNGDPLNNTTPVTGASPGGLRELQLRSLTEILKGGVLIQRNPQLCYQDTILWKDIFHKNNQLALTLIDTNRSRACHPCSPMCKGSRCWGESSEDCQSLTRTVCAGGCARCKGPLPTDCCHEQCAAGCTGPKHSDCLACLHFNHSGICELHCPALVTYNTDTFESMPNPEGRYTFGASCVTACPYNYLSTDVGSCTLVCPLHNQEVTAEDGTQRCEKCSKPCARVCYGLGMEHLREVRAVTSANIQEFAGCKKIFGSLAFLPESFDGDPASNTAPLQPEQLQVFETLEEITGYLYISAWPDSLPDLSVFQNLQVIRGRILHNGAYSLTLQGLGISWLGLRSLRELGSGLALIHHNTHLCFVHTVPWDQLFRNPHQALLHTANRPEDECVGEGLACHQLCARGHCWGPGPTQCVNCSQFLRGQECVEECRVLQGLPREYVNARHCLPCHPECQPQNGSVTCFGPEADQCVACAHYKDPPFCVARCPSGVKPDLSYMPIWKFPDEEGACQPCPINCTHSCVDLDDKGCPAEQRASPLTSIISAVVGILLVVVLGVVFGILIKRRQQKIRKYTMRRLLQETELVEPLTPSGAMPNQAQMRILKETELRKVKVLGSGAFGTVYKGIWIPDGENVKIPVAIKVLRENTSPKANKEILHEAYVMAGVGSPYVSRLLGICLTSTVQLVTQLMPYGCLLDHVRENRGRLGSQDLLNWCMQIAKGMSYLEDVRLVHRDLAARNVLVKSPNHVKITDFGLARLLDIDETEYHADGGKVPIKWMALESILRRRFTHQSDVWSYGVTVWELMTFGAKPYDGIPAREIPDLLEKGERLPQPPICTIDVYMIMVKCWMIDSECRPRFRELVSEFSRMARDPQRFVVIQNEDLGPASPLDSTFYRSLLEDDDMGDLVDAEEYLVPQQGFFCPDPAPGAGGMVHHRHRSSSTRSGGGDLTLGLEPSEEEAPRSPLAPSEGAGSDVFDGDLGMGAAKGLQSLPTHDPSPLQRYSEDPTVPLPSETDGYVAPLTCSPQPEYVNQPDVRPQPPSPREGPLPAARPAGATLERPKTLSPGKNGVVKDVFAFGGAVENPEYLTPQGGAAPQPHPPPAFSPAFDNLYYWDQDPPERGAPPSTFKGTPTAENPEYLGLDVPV

[22] = biological target: T1, Epidermal growth factor receptor; experiment: Inhibition of EGFR (unknown origin)

T1 sequence (P00533 whole entry, the tested form may be a part): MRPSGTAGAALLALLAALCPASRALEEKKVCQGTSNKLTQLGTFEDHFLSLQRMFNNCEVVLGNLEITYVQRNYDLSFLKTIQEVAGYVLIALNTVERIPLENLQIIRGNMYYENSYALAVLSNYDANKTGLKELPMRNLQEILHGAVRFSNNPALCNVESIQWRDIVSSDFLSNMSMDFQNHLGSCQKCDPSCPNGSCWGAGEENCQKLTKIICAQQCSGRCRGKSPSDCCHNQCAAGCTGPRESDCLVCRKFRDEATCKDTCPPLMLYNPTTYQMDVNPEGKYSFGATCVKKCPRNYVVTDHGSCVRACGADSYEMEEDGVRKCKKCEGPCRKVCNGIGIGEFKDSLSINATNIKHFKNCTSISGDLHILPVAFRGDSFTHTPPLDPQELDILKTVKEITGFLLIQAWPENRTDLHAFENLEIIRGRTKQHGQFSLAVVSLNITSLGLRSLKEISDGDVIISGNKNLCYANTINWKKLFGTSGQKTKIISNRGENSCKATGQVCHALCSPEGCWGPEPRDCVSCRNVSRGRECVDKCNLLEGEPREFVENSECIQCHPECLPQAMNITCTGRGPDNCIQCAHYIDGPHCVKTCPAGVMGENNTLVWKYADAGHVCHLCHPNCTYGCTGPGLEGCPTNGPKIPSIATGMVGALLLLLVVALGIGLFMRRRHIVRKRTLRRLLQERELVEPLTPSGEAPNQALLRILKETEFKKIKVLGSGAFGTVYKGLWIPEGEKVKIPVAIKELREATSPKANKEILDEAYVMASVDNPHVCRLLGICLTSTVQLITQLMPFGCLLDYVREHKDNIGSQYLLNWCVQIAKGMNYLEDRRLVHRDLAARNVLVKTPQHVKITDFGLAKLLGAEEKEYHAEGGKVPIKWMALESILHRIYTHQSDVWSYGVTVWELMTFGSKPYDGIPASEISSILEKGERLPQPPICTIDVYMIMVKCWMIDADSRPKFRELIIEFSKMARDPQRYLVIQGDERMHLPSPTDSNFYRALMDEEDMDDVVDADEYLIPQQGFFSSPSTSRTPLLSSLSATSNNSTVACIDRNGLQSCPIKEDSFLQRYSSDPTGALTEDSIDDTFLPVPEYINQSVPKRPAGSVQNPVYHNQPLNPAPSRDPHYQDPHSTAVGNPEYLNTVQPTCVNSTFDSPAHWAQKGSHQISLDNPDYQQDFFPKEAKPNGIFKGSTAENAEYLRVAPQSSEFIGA

| SMILES | IC50 [1] [nM] | IC50 [2] [nM] | IC50 [3] [nM] | IC50 [4] [nM] | further results |
| --- | --- | --- | --- | --- | --- |
| Cc1cc(Nc2ncnc3cc(O)c(NC(=O)/C=C/[C@H]4CCCN4C)cc23)ccc1Oc1cnc2ccnn2c1 | 1.03 | 2.41 | 1.9 | 3.11 | – |
| Cc1cc(Nc2ncnc3cc(O)c(NC(=O)/C=C/[C@H]4CCCN4C)cc23)ccc1Oc1ccn2ccnc2c1 | 2.31 | 1.7 | 4.55 | 4.63 | – |
| Cc1cc(Nc2ncnc3cc(O)c(NC(=O)/C=C/[C@H]4CCCN4C)cc23)ccc1Oc1ccn2ncnc2c1 | 2.8 | 1.43 | 2.65 | 2.4 | – |
| COCC(=O)NC/C=C/c1ccc2ncc(C#N)c(Nc3ccc(Oc4cc5nncn5cn4)c(C)c3)c2c1 | 1830 | – | 441 | 369 | – |
| Cc1cc(Nc2ncnc3cc(O)c(NC(=O)/C=C/[C@H]4CCCN4C)cc23)ccc1Oc1ccc2nccn2c1 | 2.32 | 6.42 | 4.08 | 5.22 | – |
| Cc1cc(Nc2ncnc3cc(O)c(NC(=O)/C=C/[C@H]4CCCN4C)cc23)ccc1Oc1cnn2cnnc2c1 | 11.8 | 16 | 28.3 | 20.8 | – |
| COCC(=O)NC/C=C/c1ccc2ncnc(Nc3ccc(Oc4cc5nncn5cn4)c(C)c3)c2c1 | 110 | 2.55 | 80.7 | 50 | – |
| Cc1cc(Nc2c(C#N)cnc3ccc(NC(=O)/C=C/[C@H]4CCCN4C)cc23)ccc1Oc1cc2nncn2cn1 | 3.13 | 10.8 | 6.7 | 7.44 | – |
| CCOc1cc2ncc(C#N)c(Nc3ccc(OCc4ccccn4)c(Cl)c3)c2cc1NC(=O)/C=C/CN(C)C [NERATINIB] | – | – | 0.64 | 2.06 | IC50 [5]: 406 nM; inhibition in vivo at 20 mg/kg/day [6]: 112%; IC50 [7]: 694 nM; IC50 [8]: 10.3 nM; inhibition in vivo at 20 mg/kg/day [9]: 119%; IC50 [10]: 38.1 nM; IC50 [11]: 1290 nM; inhibition in vivo at 20 mg/kg [12]: 56%; IC50 [13]: 788 nM; IC50 [14]: 1730 nM; IC50 [15]: 1280 nM |
| CCOc1cc2ncc(C#N)c(Nc3ccc(OCc4ccccn4)c(Cl)c3)c2cc1NC(=O)/C=C/[C@H]1CCCN1C [PYROTINIB] | – | 9.07 | 0.85 | 3.97 | IC50 [16]: 57.4 nM; IC50 [5]: 659 nM; inhibition in vivo at 20 mg/kg/day [6]: 113%; IC50 [7]: 1840 nM; IC50 [8]: 14 nM; IC50 [17]: 2.4 nM; inhibition in vivo at 20 mg/kg/day [9]: 118%; IC50 [18]: 3.91 nM; IC50 [19]: 15 nM; IC50 [10]: 60.8 nM; IC50 [11]: 1560 nM; inhibition in vivo at 20 mg/kg [12]: 55%; IC50 [13]: 778 nM; IC50 [14]: 1690 nM; IC50 [15]: 1890 nM; IC50 [20]: 4.43 nM; IC50 [21]: 6.65 nM |
| Cc1cc(Nc2ncnc3ccc(NC4=NC(C)(C)CO4)cc23)ccc1Oc1ccn2ncnc2c1 [TUCATINIB] | – | – | – | – | IC50 [22]: 449 nM; IC50 [20]: 6.9 nM |
